# Patent publication US20260007758A1, “SO[…]-2 RECEPTOR (SST2R) NON-PEPTIDE DRUG CONJUGATES AND USES THEREOF” (Crinetics Pharmaceuticals, Inc., priority 2024, published 2026)
# Key:
# Assay type in all cases: cell-based
# [1] = biological target: T1, SST2 (Homo sapiens, UniProt P30874); assay: PathHunter CHO-K1 SST2 Internalization Assay; settings: PathHunter CHO-K1 SST2 cells; 90 min at 37 C; luminescence; read-out: Internalization EC50
# T1 construct: host or cells: PathHunter CHO-K1 SST2 cells
# Method in brief: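 CHO-K1 cells expressing human SST2, 2500 cells/well, grown 48 h, then exposed 90 min at 37 C to 11-point 1:3 NDC dilutions (final top 10 uM). Beta-Glo luminescence after 60 min at room temperature; four-parameter IC50, duplicate mean, background-corrected.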
# [2] = biological target: T2, human somatostatin receptor subtype 2 (Homo sapiens, UniProt P30874); assay: Functional assay for SSTR2 agonists (HTRF cAMP); settings: CHO-K1 cells stably expressing human SST2; NKH477-stimulated cAMP; 20 min at 37 C; read-out: hSST2 cAMP Avg EC50
# T2 construct: expressed in transfected cells
# Method in brief: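 CHO-K1 cells stably expressing human SSTR2 treated with compound (typically 0-10,000 nM final) for 20 min at 37 °C. Lysate cAMP measured by HTRF (665/620 nm ratio), converted via standard curve; EC50 from cAMP vs concentration.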
# [3] = tested on: NCI-H524 human small cell lung cancer cells; assay: H524 assay: inhibition of cell proliferation (CellTiter Glo); settings: 2 h treatment, washout, additional 70 h incubation
# Method in brief: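 NCI-H524 cells were exposed for 2 h to NDC in an 11-point two-fold series starting at 1 uM. The drug was then washed out and cells grew a further 70 h. CellTiter Glo luminescence gave % inhibition versus untreated control, and IC50 came from a four-parameter nonlinear regression.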
# T2 sequence (P30874 whole entry): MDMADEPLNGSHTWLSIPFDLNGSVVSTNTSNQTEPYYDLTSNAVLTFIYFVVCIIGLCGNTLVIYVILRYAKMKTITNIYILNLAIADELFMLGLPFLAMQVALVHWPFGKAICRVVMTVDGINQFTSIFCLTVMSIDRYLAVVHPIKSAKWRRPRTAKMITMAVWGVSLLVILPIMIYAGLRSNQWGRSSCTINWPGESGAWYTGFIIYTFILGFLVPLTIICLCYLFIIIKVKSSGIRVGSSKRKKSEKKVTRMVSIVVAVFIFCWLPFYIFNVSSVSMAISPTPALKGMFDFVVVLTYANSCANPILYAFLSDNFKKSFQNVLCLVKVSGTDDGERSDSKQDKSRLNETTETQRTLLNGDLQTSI
# T1 sequence (P30874 whole entry): as above
SMILES,EC50 [1] [nM],EC50 [2] [nM],EC50 [3] [nM]
CC[C@H](C)[C@@H]([C@@H](CC(=O)N1CCC[C@H]1[C@H](OC)[C@@H](C)C(=O)N[C@H](C)[C@@H](O)c1ccccc1)OC)N(C)C(=O)[C@@H](NC(=O)[C@H](C(C)C)N(C)C(=O)OCc1ccc(NC(=O)[C@H](CCCNC(N)=O)NC(=O)[C@@H](NC(=O)c2cc(NCCOCCC(=O)N(C)CC(=O)NCCNc3ncc(-c4cc(C)cc(F)c4)c(N4CCC(N)CC4)c3-c3nc4ccc(Cl)cc4[nH]3)cc(C(=O)NCC(=O)O)c2)C(C)C)cc1)C(C)C [Compound 162],4.7,0.27,60
CC[C@H](C)[C@@H]([C@@H](CC(=O)N1CCC[C@H]1[C@H](OC)[C@@H](C)C(=O)N[C@H](C)[C@@H](O)c1ccccc1)OC)N(C)C(=O)[C@@H](NC(=O)[C@H](C(C)C)N(C)C(=O)OCc1ccc(NC(=O)[C@H](CCCNC(N)=O)NC(=O)[C@@H](NC(=O)C[C@@H](N)C(=O)NCCOCCNC(=O)c2cc(NCCOCCC(=O)NCCNc3ncc(-c4cc(C)cc(F)c4)c(N4CCC(N)CC4)c3-c3nc4ccc(Cl)cc4[nH]3)cc(C(=O)NCC(=O)O)c2)C(C)C)cc1)C(C)C [Compound 163],6.3,0.15,67
CC[C@H](C)[C@@H]([C@@H](CC(=O)N1CCC[C@H]1[C@H](OC)[C@@H](C)C(=O)N[C@H](C)[C@@H](O)c1ccccc1)OC)N(C)C(=O)[C@@H](NC(=O)[C@H](C(C)C)N(C)C(=O)OCc1ccc(NC(=O)[C@H](CCCNC(N)=O)NC(=O)[C@@H](NC(=O)C[C@@H](N)C(=O)NCCOCCNC(=O)c2cc(NCCOCCC(=O)NCCNc3ncc(-c4cc(C)cc(F)c4)c(N4CCC(N)CC4)c3-c3nc4cc(F)cc(OC)c4[nH]3)cc(C(=O)NCC(=O)O)c2)C(C)C)cc1)C(C)C [Compound 164],4.1,0.35,27
CC[C@H](C)[C@@H]([C@@H](CC(=O)N1CCC[C@H]1[C@H](OC)[C@@H](C)C(=O)N[C@H](C)[C@@H](O)c1ccccc1)OC)N(C)C(=O)[C@@H](NC(=O)[C@H](C(C)C)N(C)C(=O)OCc1ccc(NC(=O)[C@H](CCCNC(N)=O)NC(=O)[C@@H](NC(=O)c2cc(NCCOCCC(=O)NCCNc3ncc(-c4cc(C)cc(F)c4)c(N4CCC(N)CC4)c3-c3nc4ccc(F)cc4[nH]3)cc(C(=O)NCC(=O)O)c2)C(C)C)cc1)C(C)C [Compound 165],10,0.5,90
CC[C@H](C)[C@@H]([C@@H](CC(=O)N1CCC[C@H]1[C@H](OC)[C@@H](C)C(=O)N[C@H](C)[C@@H](O)c1ccccc1)OC)N(C)C(=O)[C@@H](NC(=O)[C@H](C(C)C)N(C)C(=O)OCc1ccc(NC(=O)[C@H](CCCNC(N)=O)NC(=O)[C@@H](NC(=O)c2cc(NCCOCCC(=O)NCCNc3ncc(-c4cc(C)cc(F)c4)c(N4CCC(N)CC4)c3-c3nc4cc(F)cc(OC)c4[nH]3)cc(C(=O)NCC(=O)O)c2)C(C)C)cc1)C(C)C [Compound 166],4.5,0.29,18
CC[C@H](C)[C@@H]([C@@H](CC(=O)N1CCC[C@H]1[C@H](OC)[C@@H](C)C(=O)N[C@H](C)[C@@H](O)c1ccccc1)OC)N(C)C(=O)[C@@H](NC(=O)[C@H](C(C)C)N(C)C(=O)OCc1ccc(NC(=O)[C@H](CCCNC(N)=O)NC(=O)[C@@H](NC(=O)c2cc(NCCCCCC(=O)NCCNc3ncc(-c4cc(C)cc(F)c4)c(N4CCC(N)CC4)c3-c3nc4ccc(F)cc4[nH]3)cc(C(=O)NCC(=O)O)c2)C(C)C)cc1)C(C)C [Compound 167],13,0.24,150
CC[C@H](C)[C@@H]([C@@H](CC(=O)N1CCC[C@H]1[C@H](OC)[C@@H](C)C(=O)N[C@H](C)[C@@H](O)c1ccccc1)OC)N(C)C(=O)[C@@H](NC(=O)[C@H](C(C)C)N(C)C(=O)OCc1ccc(NC(=O)[C@H](CCCNC(N)=O)NC(=O)[C@@H](NC(=O)c2cc(NCCCCCC(=O)N(C)CC(=O)NCCNc3ncc(-c4cc(C)cc(F)c4)c(N4CCC(N)CC4)c3-c3nc4ccc(F)cc4[nH]3)cc(C(=O)NCC(=O)O)c2)C(C)C)cc1)C(C)C [Compound 168],5.8,0.17,34
CC[C@H](C)[C@@H]([C@@H](CC(=O)N1CCC[C@H]1[C@H](OC)[C@@H](C)C(=O)N[C@H](C)[C@@H](O)c1ccccc1)OC)N(C)C(=O)[C@@H](NC(=O)[C@H](C(C)C)N(C)C(=O)OCc1ccc(NC(=O)[C@H](CCCNC(N)=O)NC(=O)[C@@H](NC(=O)c2cc(NC(=O)CCCC(=O)N(C)CC(=O)NCCNc3ncc(-c4cc(C)cc(F)c4)c(N4CCC(N)CC4)c3-c3nc4ccc(F)cc4[nH]3)cc(C(=O)NCC(=O)O)c2)C(C)C)cc1)C(C)C [Compound 169],10,0.1,32
CC[C@H](C)[C@@H]([C@@H](CC(=O)N1CCC[C@H]1[C@H](OC)[C@@H](C)C(=O)N[C@H](C)[C@@H](O)c1ccccc1)OC)N(C)C(=O)[C@@H](NC(=O)[C@H](C(C)C)N(C)C(=O)OCc1ccc(NC(=O)[C@H](CCCNC(N)=O)NC(=O)[C@@H](NC(=O)c2cc(NC(=O)CCCC(=O)NCCNc3ncc(-c4cc(C)cc(F)c4)c(N4CCC(N)CC4)c3-c3nc4ccc(Cl)cc4[nH]3)cc(C(=O)NC[C@@H](N)C(=O)O)c2)C(C)C)cc1)C(C)C [Compound 170],12,0.31,22
CC[C@H](C)[C@@H]([C@@H](CC(=O)N1CCC[C@H]1[C@H](OC)[C@@H](C)C(=O)N[C@H](C)[C@@H](O)c1ccccc1)OC)N(C)C(=O)[C@@H](NC(=O)[C@H](C(C)C)N(C)C(=O)OCc1ccc(NC(=O)[C@H](CCCNC(N)=O)NC(=O)[C@@H](NC(=O)c2cc(NC(=O)CCCC(=O)N(C)CC(=O)NCCNc3ncc(-c4cc(C)cc(F)c4)c(N4CCC(N)CC4)c3-c3nc4ccc(Cl)cc4[nH]3)cc(C(=O)NC[C@@H](N)C(=O)O)c2)C(C)C)cc1)C(C)C [Compound 171],8.3,0.33,14
CC[C@H](C)[C@@H]([C@@H](CC(=O)N1CCC[C@H]1[C@H](OC)[C@@H](C)C(=O)N[C@H](C)[C@@H](O)c1ccccc1)OC)N(C)C(=O)[C@@H](NC(=O)[C@H](C(C)C)N(C)C(=O)OCc1ccc(NC(=O)[C@H](CCCNC(N)=O)NC(=O)[C@@H](NC(=O)c2cc(NCCCC(=O)N(C)CC(=O)NCCNc3ncc(-c4cc(C)cc(F)c4)c(N4CCC(N)CC4)c3-c3nc4ccc(Cl)cc4[nH]3)cc(C(=O)NC[C@@H](N)C(=O)O)c2)C(C)C)cc1)C(C)C [Compound 172],6.3,0.33,22
CC[C@H](C)[C@@H]([C@@H](CC(=O)N1CCC[C@H]1[C@H](OC)[C@@H](C)C(=O)N[C@H](C)[C@@H](O)c1ccccc1)OC)N(C)C(=O)[C@@H](NC(=O)[C@H](C(C)C)N(C)C(=O)OCc1ccc(NC(=O)[C@H](CCCNC(N)=O)NC(=O)[C@@H](NC(=O)C2(NC(=O)CCCC(=O)N(C)CC(=O)NCCNc3ncc(-c4cc(C)cc(F)c4)c(N4CCC(N)CC4)c3-c3nc4ccc(Cl)cc4[nH]3)CCN(CC(=O)O)CC2)C(C)C)cc1)C(C)C [Compound 173],19,0.24,52
CC[C@H](C)[C@@H]([C@@H](CC(=O)N1CCC[C@H]1[C@H](OC)[C@@H](C)C(=O)N[C@H](C)[C@@H](O)c1ccccc1)OC)N(C)C(=O)[C@@H](NC(=O)[C@H](C(C)C)N(C)C(=O)OCc1ccc(NC(=O)C(CCCNC(N)=O)NC(=O)[C@@H](NC(=O)c2cc(NC(=O)CCOCCC(=O)N(C)CC(=O)NCCNc3ncc(-c4cc(C)cc(F)c4)c(N4CCC(N)CC4)c3-c3nc4ccc(Cl)cc4[nH]3)cc(C(=O)NCC(=O)NCCN)c2)C(C)C)cc1)C(C)C (stereo partly drawn) [Compound 175],18,0.41,56
CC[C@H](C)[C@@H]([C@@H](CC(=O)N1CCC[C@H]1[C@H](OC)[C@@H](C)C(=O)N[C@H](C)[C@@H](O)c1ccccc1)OC)N(C)C(=O)[C@@H](NC(=O)[C@H](C(C)C)N(C)C(=O)OCc1ccc(NC(=O)[C@H](CCCNC(N)=O)NC(=O)[C@@H](NC(=O)[C@H](CCc2nnn[nH]2)NC(=O)CCOCCC(=O)NCCNc2ncc(-c3cc(C)cc(F)c3)c(N3CCC(N)CC3)c2-c2nc3ccc(Cl)cc3[nH]2)C(C)C)cc1)C(C)C [Compound 176],3.7,0.28,620
CC[C@H](C)[C@@H]([C@@H](CC(=O)N1CCC[C@H]1[C@H](OC)[C@@H](C)C(=O)N[C@H](C)[C@@H](O)c1ccccc1)OC)N(C)C(=O)[C@@H](NC(=O)[C@H](C(C)C)N(C)C(=O)OCc1ccc(NC(=O)[C@H](CCCNC(N)=O)NC(=O)[C@@H](NC(=O)c2cc(NCCOCCOCCOCCC(=O)NCCNc3ncc(-c4cc(C)cc(F)c4)c(N4CCC(N)CC4)c3-c3nc4ccc(Cl)cc4[nH]3)cc(C(=O)O)c2)C(C)C)cc1)C(C)C [Compound 177],11,0.23,2300
CC[C@H](C)[C@@H]([C@@H](CC(=O)N1CCC[C@H]1[C@H](OC)[C@@H](C)C(=O)N[C@H](C)[C@@H](O)c1ccccc1)OC)N(C)C(=O)[C@@H](NC(=O)[C@H](C(C)C)N(C)C(=O)OCc1ccc(NC(=O)[C@H](CCCNC(N)=O)NC(=O)[C@@H](NC(=O)c2cc(NCCOCCOCCOCCC(=O)NCCNc3ncc(-c4cc(C)cc(F)c4)c(N4CCC(N)CC4)c3-c3nc4ccc(Cl)cc4[nH]3)cc(C(=O)OC)c2)C(C)C)cc1)C(C)C [Compound 178],5.6,0.27,620
